Legend:
hERG = hERG (Homo sapiens (Human), UniProt Q12809); assay: hERG inhibition, whole-cell patch clamp; assay type: cell-based; conditions: HEK293 cells stably transfected with hERG, 34 °C, tail current
Procedure: For hERG inhibition assays, the cells used were HEK293 cells stably transfected with hERG (cell line obtained from Cytocentrics Inc. 3463 Magic Drive San Antonio, Tex. 78229). Composition of External Solution: NaCl, 137 mM; KCl, 4 mM; MgCl2, 1.0 mM; CaCl2, 1.8 mM; HEPES 10 mM; Dextrose 11 mM; Adjusted to a pH of 7.4 with NaOH. Composition of Internal Solution: KCl, 130.0 mM; MgCl2, 1.0 mM; HEPES, 5.0 mM; EGTA, 5.0 mM; NaCl 7.0 mM. Adjusted to a pH of 7.2 using KOH. Test Concentrations: 0.1, 1, 10, 100 μM. Vehicle: DMSO. Experiments were performed at 34+/−1° C. Current was recorded using the whole-cell patch clamp technique on the Cytopatch automated platform. hERG current was elicited with the following voltage protocol: hERG current amplitude was measured as the peak current at −50 mV (tail current). […] Each cell served as its own control. Data are presented as the IC50 calculated by non-linear regression analysis.

[1] = tested on: CYP1A2, CYP2C9, CYP2C19, CYP3A4, CYP2D6; assay: Cyp inhibition in human liver microsomes (all isozymes); assay type: in vitro ADME
Procedure: (§1) For Cyp inhibition, human liver microsomes from BD Gentest were incubated with Compound 028 or Compound 032 (10, 3.33, 1.11, 0.37, 0.12, 0.04, 0.01 μM) and substrate (CYP1A2: Phenacetin at 30 μM; CYP2C9: Diclofenac at 10 μM; CYP2C19: S-Mephenytoin at 35 μM; CYP3A4: Midazolam at 5 μM and Testosterone at 80 μM; CYP2D6: Bufuralol at 10 μM) for the following incubation times: CYP1A2, 2C9, 2D6: 10 minutes, 37° C.; CYP2C19: 45 minutes, 37° C.; CYP3A4: 5 minutes, 37° C. Substrate conversion was measured by liquid chromatography/mass spectrometry/mass spectrometry (LC/MS/MS). Inhibition was calculated by curve fitting in Graph Pad Prism.

[2] = Rat pharmacokinetics, cassette dosing (IV and PO); assay type: in vivo; conditions: rat, plasma, male SD rats; for bioavailability: 5 mg/kg, oral AUC to IV AUC, dose adjusted; for IV clearance: IV 1 mg/kg; for AUC / Cmax / half-life: PO 5 mg/kg; for half-life: read-out: PO T½ (converted)
Procedure: Male SD rats were fasted overnight. Compounds of the invention were dissolved in dimethyl acetamide at 10 times the final concentration, then Solutol HS 15 (BASF) was added to a final concentration of 10%. Finally 80% saline was added and vortexed to achieve a clear solution. For the IV dosing three animals were injected via the foot dorsal vein with 1 mg/kg compound. For the PO dosing 5 mg/kg of compound was delivered by oral gavage. Blood was collected via the tail vein into K2EDTA tubes at 5 minutes, 15 minutes, 30 minutes, 1 hour, 2 hours, 4 hours, 8 hours and 24 hours after dosing. The blood was centrifuged at 2000 g for 5 minutes at 4° C. to obtain plasma. The plasma was extracted with acetonitrile and the level of compound was analyzed by LC/MS/MS. The level of compound in plasma was calculated from a standard curve in rat plasma. The IV clearance (L/h/kg) and area under the curve (h*ng/mL) were calculated using WinNonLin software. The dose adjusted area under the curve for the IV and oral dosing were used to calculate the oral bioavailability.
Pharmacokinetic properties were assessed in a rat cassette dosing experiment. The IV clearance (IV Clr.) is in units of L/hr/kg. The oral maximum plasma concentration (PO Cmax) is in units of ng/ml. The oral plasma half-life (PO T½) is in units of hours. The oral area under the curve (PO AUC) is in units of hours*ng/ml. The fraction absorbed by the oral route (F %) is a percentage of the oral area under the curve to the IV area under the curve, dose adjusted.

CYP3A4 = CYP3A4 (Homo sapiens (Human), UniProt P08684); assay: Cyp inhibition in human liver microsomes (3A4/midazolam); assay type: in vitro ADME
Procedure: as §1, with “CYP2C9:” for “For Cyp inhibition, human liver microsomes from BD Gentest were incubated with Compound 028 or Compound 032 (10, 3.33, 1.11, 0.37, 0.12, 0.04, 0.01 μM) and substrate (CYP1A2: Phenacetin at 30 μM; CYP2C9:”

Sequence of hERG (Q12809 whole entry): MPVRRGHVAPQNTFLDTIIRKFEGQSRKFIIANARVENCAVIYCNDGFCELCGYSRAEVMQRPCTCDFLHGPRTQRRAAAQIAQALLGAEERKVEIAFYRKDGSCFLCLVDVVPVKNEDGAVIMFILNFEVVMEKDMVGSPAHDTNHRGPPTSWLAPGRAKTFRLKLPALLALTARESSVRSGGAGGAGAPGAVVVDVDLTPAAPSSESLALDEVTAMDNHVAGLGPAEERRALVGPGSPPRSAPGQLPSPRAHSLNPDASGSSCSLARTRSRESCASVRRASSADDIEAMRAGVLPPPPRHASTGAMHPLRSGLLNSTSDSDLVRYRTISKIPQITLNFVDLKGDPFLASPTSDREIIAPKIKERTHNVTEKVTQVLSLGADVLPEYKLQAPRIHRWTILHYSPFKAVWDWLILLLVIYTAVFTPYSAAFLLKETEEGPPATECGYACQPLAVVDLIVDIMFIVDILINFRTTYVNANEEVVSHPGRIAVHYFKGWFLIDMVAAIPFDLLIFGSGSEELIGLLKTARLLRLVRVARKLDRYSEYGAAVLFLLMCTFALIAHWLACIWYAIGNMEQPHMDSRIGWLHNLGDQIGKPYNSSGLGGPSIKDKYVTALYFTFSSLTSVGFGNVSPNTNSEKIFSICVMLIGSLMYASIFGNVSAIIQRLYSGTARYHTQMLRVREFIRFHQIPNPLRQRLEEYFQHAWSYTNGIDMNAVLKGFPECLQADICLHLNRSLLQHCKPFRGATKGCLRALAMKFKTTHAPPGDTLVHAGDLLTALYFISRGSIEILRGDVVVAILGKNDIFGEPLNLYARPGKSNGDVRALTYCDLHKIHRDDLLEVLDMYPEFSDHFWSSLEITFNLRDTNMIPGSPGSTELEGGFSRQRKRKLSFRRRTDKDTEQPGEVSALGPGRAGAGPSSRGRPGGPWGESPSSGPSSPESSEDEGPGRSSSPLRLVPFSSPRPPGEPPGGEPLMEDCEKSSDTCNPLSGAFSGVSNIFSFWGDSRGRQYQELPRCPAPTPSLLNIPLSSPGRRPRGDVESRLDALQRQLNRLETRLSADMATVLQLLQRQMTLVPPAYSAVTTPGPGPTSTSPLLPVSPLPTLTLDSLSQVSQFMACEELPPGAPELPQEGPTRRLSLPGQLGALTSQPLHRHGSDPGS
Sequence of CYP3A4 (P08684 whole entry): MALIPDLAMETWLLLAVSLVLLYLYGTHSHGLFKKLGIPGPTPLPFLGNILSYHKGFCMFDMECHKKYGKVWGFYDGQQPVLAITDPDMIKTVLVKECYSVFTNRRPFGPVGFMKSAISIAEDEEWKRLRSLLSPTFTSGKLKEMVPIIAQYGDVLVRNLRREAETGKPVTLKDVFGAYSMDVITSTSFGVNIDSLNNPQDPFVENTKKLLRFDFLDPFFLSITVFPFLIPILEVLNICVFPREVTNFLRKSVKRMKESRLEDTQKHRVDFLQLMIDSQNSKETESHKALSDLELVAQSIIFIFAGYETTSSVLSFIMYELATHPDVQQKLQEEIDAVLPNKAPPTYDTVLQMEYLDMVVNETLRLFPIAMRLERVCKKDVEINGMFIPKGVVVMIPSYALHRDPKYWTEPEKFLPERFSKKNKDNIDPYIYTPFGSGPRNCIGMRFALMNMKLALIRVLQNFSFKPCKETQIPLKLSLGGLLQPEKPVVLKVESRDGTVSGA

| Structure (SMILES) | IC50 (hERG) | IC50 [1] | bioavailability [2] | IV clearance [2] | AUC [2] | Cmax [2] | half-life [2] | IC50 (CYP3A4) |
| --- | --- | --- | --- | --- | --- | --- | --- | --- |
| Nc1ccc(-c2ccco2)cc1NC(=O)c1ccc2nc(N3CCNCC3)ccc2c1 [Compound 003] | 7.6 µM | > 10 µM | 77% | 0.19 L/h/kg | 19.1 µg·h/mL | 1.91 µg/mL | 5 h | – |
| Nc1ccc(-c2ccccc2)cc1NC(=O)c1cc2ccc(N3CCNCC3)cc2cn1 [Compound 022] | 0.4 µM | > 10 µM | 195% | 0.98 L/h/kg | 8.18 µg·h/mL | 0.517 µg/mL | 13.5 h | – |
| CN1CCN(c2ccc(C(=O)Nc3cc(-c4ccncc4)ccc3N)cn2)CC1 [Compound 027] | > 100 µM | > 10 µM | 78.6% | 0.63 L/h/kg | 6.19 µg·h/mL | 0.839 µg/mL | 3 h | – |
| CN1CCN(c2ccc(C(=O)Nc3cc(-c4ccncc4)ccc3N)nc2)CC1 [Compound 028] | 38 µM | – | – | – | – | – | – | 5.9 µM |
| Cc1nc(N2CCNCC2)sc1C(=O)Nc1cc(-c2cccs2)ccc1N [Compound 031] | 12 µM | > 10 µM | – | – | – | – | – | – |
| Nc1ccc(-c2ccncc2)cc1NC(=O)c1cnc(N2CCNCC2)s1 [Compound 032] | 12 µM | – | 9.7% | 1.06 L/h/kg | 0.456 µg·h/mL | 0.173 µg/mL | 4.3 h | 9.5 µM |
